Results: patent US20240262727A1, “METHOD FOR IMPROVING BIOLOGICAL NITROGEN REMOVAL EFFECT OF LOW-TEMPERATURE SEWAGE” (Sichuan University, priority 2023, published 2024)

Legend:
[1] = system: activated sludge and biofilm phases; assay: EPS and ATP of the activated sludge and biofilm phases of the MBBR
Procedure: The EPS concentration in the sludge phase was 46.12±4.8 mg/g·VSS, and the intracellular ATP was 1273.11±5.4 ngATP/mL; the EPS concentration in the biofilm phase was 53.34±3.7 mg/g. VSS, and the microbial activity concentration of a single filler was 20.67±0.22 ngATP/piece.

biofilm on the filler = assay: Single biofilm MBBR at low temperature (sludge discharged on 18th day), pollutant removal and community structure
Procedure: (§1) The C4-HSL with a concentration of 100 μg/L was added to the influent. The rest steps were the same as those in Example 5.
The hydraulic retention time was 18 h, the rest steps were the same as those Example 1, and the COD removal efficiency was 85%; after the reactor was drained of sludge, the nitrification effect dropped sharply.

[2] = system: microbial community of the activated sludge; assay: High-throughput sequencing / metagenomics of SBR activated sludge (microbial community and functional genes); conditions: for relative content of Nakamurella (nitrifying bacteria): 17.46% without
Procedure: After the treatment effect was stable, high-throughput sequencing was conducted on the activated sludge to analyze a composition of the microbial community. […] The increased abundance of functional bacteria and functional genes in the activated sludge SBR reactor improved the nitrogen removal effect of this reactor.

[3] = system: activated sludge-biofilm composite system; assay: Activated sludge-biofilm composite MBBR reactor at 6° C., pollutant removal efficiency; conditions: 100 μg/L, HRT 18 h
activated sludge [4] = assay: Activated sludge SBR reactor, biological nitrogen removal with added AHLs signal molecule
Procedure: A system to be treated was cooled to 10° C., and an activated sludge SBR reactor was adopted with an effective volume of 1 L and an MLSS of 4,000 mg/L.
Incoming influent: COD: 250 mg/L, ammonia-nitrogen concentration (NH4^+—N): 30 mg/L, TP: 1.5 mg/L, pH=7-8.
12 h was an operation cycle, including 2.5 h of anoxic phase, 8 h of aerobic phase, and 1.5 h of standing. The anoxic phase had dissolved oxygen (DO) maintained below 0.5 mg/L, and the aerobic phase had DO>2.5 mg/L.
An N-butanoyl-homoserine lactone stock solution with a concentration of 10 mg/L, which was added every 2 operation cycles following the influent.
This example differed from Example 1 in that the treatment system was cooled to 7° C., and after the operation was stable, the water temperature was further lowered to 4° C.

[5] = system: biofilm / quorum quenching bacteria; assay: Biofilm MBBR reactor at 22° C., microbial community structure; conditions: 100 μg/L
Procedure: The sludge was discharged on the 12th day after the biofilm was successfully formed on the filler. The C4-HSL with a concentration of 100 μg/L was added to the influent. The rest steps were the same as those in Example 5.
The high concentration of C4-HSL allowed the quorum quenching bacteria to grow at a suitable temperature (22±1° C.), stimulating quorum quenching and inhibiting the attachment and growth of microorganisms to the filler.

[6] = system: activated sludge-biofilm composite system; assay: Activated sludge-biofilm composite MBBR reactor at 6° C., pollutant removal efficiency
Procedure: (2) The hydraulic retention time was 20 h, and an effluent from the reactor was collected to detect the pollutant removal efficiency. After a short period of adaptation, the COD concentration in the reactor effluent dropped below 50 mg/L, and the removal efficiency was always maintained at 85%. After adding the C4-HSL, the nitrogen removal effect gradually became more prominent. On the 16th day, the effluent ammonia-nitrogen concentration dropped below 8 mg/L (a maximum allowable emission concentration of ammonia-nitrogen from most urban sewage treatment plants at a water temperature of below 12° C.) to 6.77 mg/L, and the removal efficiency was 71.86%. On the 51st day, the ammonia-nitrogen concentration in the effluent dropped to almost 0, and the removal efficiency was greater than 99%.
There were three stages: increasing COD from 160 mg/L to 500 mg/L (260, 400, 500 mg/L); increasing ammonia-nitrogen concentration from 25 mg/L to 75 mg/L (40, 65, 75 mg/L); increasing TP from 2 mg/L to 8.5 mg/L (4, 6, 8.5 mg/L).
as §1

activated sludge [7] = assay: Activated sludge SBR reactor, biological nitrogen removal with added AHLs signal molecule; conditions: for MLSS lower than that of the control group (without C4-HSL added): 4° C.; for MLSS of the reactor lower than that of the control group (without C4-HSL): after stable operation
[8] = 40 μg/L, 6° C., after treatment effect stable
[9] = 100 μg/L, 6° C., after treatment effect stable
[10] = 100 μg/L, after raising influent in three stages
[11] = 100 μg/L, after reactor drained of sludge
[12] = room temperature, 0, 10, 100 μg/L, after 74 cycles

## CCCC(=O)N[C@H]1CCOC1=O [C4-HSL, N-butanoyl-L-homoserine lactone]
[1]; [8]
  EPS concentration in the biofilm phase: 53.34±3.7 mg/g. VSS
  EPS concentration in the sludge phase: 46.12±4.8 mg/g·VSS
  intracellular ATP (sludge phase): 1273.11±5.4 ngATP/mL
  microbial activity concentration of a single filler: 20.67±0.22 ngATP/piece
[1]; 40 μg/L, third stage influent
  EPS concentration in the activated sludge phase: 127.07±4.5 mg/g·VSS
  EPS concentration in the biofilm phase: 113.70±2.59 mg/g. VSS
  intracellular ATP (sludge phase): 1709.78±4.1 ngATP/mL
  microbial activity concentration of a single filler: 113.99±0.67 ngATP/mL
[1]; [9]
  EPS concentration in activated sludge phase: 80.62±3.1 mg/g·VSS
  EPS concentration in biofilm phase: 96.74±2.8 mg/g·VSS
  intracellular ATP (sludge phase): 2441.01±7.2 ngATP/mL
  microbial activity concentration of a single filler: 26.56±0.42 ngATP/piece
[1]; [10]
  EPS concentration in activated sludge phase: 380.38±5.7 mg/g·VSS
  EPS concentration in biofilm phase: 235.18±3.5 mg/g·VSS
  intracellular ATP (sludge phase): 5868.42±8.9 ngATP/mL
  microbial activity concentration of a single filler: 113.99±0.67 ngATP/mL
Biofilm on the filler; 100 μg/L, HRT 18 h, sludge discharged on 18th day (Comparative Example 7)
  COD removal efficiency: 85%
Biofilm on the filler; [11]
  ammonia-nitrogen removal efficiency: 40%
  effluent ammonia-nitrogen concentration: 12 mg/L
Biofilm on the filler; low temperature conditions
  growth and enrichment of Bacteroidetes and Actinobacteria on the filler: beneficial to promote the growth and enrichment
Biofilm on the filler; low temperature, single biofilm system
  nitrification effect of a single biofilm system: could not quickly improve
[2]; 10 μg/L, 10° C.
  abundance of CS gene (TCA cycle): 0.017%
  abundance of complete nitrifying bacterium Nitrospira: 0.100%
  abundance of decomposition genes related to QS: 1.92%
  abundance of denitrifying bacterium Dechloromonas: 0.246%
  abundance of denitrifying bacterium Denitratisoma: 0.189%
  abundance of fum gene (TCA cycle): 0.018%
  abundance of regulatory genes related to QS: 2.40%
  abundance of sdh gene (TCA cycle): 0.030%
  abundance of transport genes related to QS: 7.75%
[2]; 10 μg/L, 10° C. (Example 1)
  abundance of ammonia-oxidizing bacterium MND1: 0.007%
[2]; 10 μg/L, 10° C., metagenomic
  share of complete nitrification process in nitrogen metabolism: 12.53%
[2]; 100 μg/L, 10° C.
  abundance of CS gene (TCA cycle): 0.021%
  abundance of Nitrospira: 0.222%
  abundance of ammonia-oxidizing bacterium MND1: 0.005%
  abundance of decomposition genes related to QS: 2.50%
  abundance of fum gene (TCA cycle): 0.021%
  abundance of heterotrophic nitrifying-aerobic denitrifying bacterium (Microbacterium): 0.463%
  abundance of mdh gene (TCA cycle): 0.011%
  abundance of nitrification gene nxr: 0.027%
  abundance of nitrogen removal gene nirK: 0.015%
  abundance of regulatory genes related to QS: 2.98%
  abundance of sdh gene (TCA cycle): 0.040%
  abundance of transport genes related to QS: 9.22%
  share of complete nitrification process in nitrogen metabolism: 13.82%
  total abundance of 11 species of denitrifying bacteria: 16.53%
[2]; 100 μg/L, 10° C. (Example 2)
  abundance of ammonia-oxidizing bacterium Ellin6067: 0.393%
[2]; 4° C., after system stable
  relative abundance of Arthrobacter, Nakamurella, Micrococcaceae and Nitrosomonas: promoted the increase
[2]; 7° C., after system stabilized
  relative abundance of TM7a, Nakamurella, Tessaracoccus and Ferruginibacter: increased
[2]; room temperature
  effect on Actinobacteriota and Gemmatimonadota: inhibition at low concentrations and promotion at high concentrations
[2]; room temperature, high-concentration C4-HSL
  relative content of Nakamurella (nitrifying bacteria): 20.79%
[2]; room temperature, low-concentration C4-HSL
  relative content of Nakamurella (nitrifying bacteria): 16.66%
[2]; room temperature, effect increased with concentration
  growth and reproduction of Patescibacteria: promote
[2]; room temperature, stronger at higher concentration
  growth of Proteobacteria and Bacteroidota (phylum level): inhibited
[3]; 5th day
  ammonia-nitrogen removal efficiency: 77.43%
[3]; 5th day (Example 6)
  effluent ammonia-nitrogen concentration: 5.85 mg/L
[3]; 12th day
  ammonia-nitrogen removal efficiency: greater than 99%
Activated sludge [4]; 10 μg/L, 4° C. (Example 3)
  average NH4+—N removal efficiency: 99.3%
Activated sludge [4]; 10 μg/L, 7° C.
  MLSS lower than that of the control group (without C4-HSL added): 22%
Activated sludge [4]; 10 μg/L, 7° C., after stabilization (Example 3)
  average NH4+—N removal efficiency: 96.9%
Activated sludge [4]; 100 μg/L, 7° C.
  MLSS lower than that of the control group (without C4-HSL added): 19%
Activated sludge [4]; 100 μg/L, 7° C., after stabilization (Example 4)
  average NH4+—N removal efficiency: 96.3%
[5]; 22° C.
  colonization and growth of biofilm: inhibited
[5]; 22° C. (Comparative Example 8)
  growth of quorum quenching bacteria: promoted
[6]; 40 μg/L, 6° C., 16th day
  ammonia-nitrogen removal efficiency: 71.86%
[6]; 40 μg/L, 6° C., 16th day, influent 25 mg/L
  effluent ammonia-nitrogen concentration: 6.77 mg/L
[6]; 40 μg/L, 6° C., 51st day
  ammonia-nitrogen concentration in the effluent: ~0
  ammonia-nitrogen removal efficiency: greater than 99%
[6]; 40 μg/L, 6° C., HRT 20 h
  COD removal efficiency: 85%
[6]; 40 μg/L, 6° C., HRT 20 h, influent COD 160 mg/L (Example 5)
  COD concentration in the reactor effluent: below 50 mg/L
[6]; 40 μg/L, 6° C., third stage influent COD 500, ammonia-nitrogen 75, TP 8.5 mg/L, 234th day
  effluent COD concentration: below 50 mg/L
[6]; 40 μg/L, third stage influent
  TN removal efficiency: not less than 80%
  effluent total nitrogen (TN) concentration: 12 mg/L
[6]; 40 μg/L, third stage influent, 234th day
  COD removal efficiency: 95%
[6]; 100 μg/L, after raising influent in three stages (COD 500, ammonia-nitrogen 75, TP 8.5 mg/L)
  effluent ammonia-nitrogen removal efficiency: not less than 99%
Activated sludge [7]; 10 μg/L added every 2 cycles, 10° C. (Example 1)
  COD removal efficiency: 90%
Activated sludge [7]; 10 μg/L
  MLSS lower than that of the control group (without C4-HSL added): 40%
Activated sludge [7]; 10 μg/L, 10° C. (Example 1)
  TN average effluent concentration: 11.40 mg/L
  average NH4+—N removal efficiency: 99.69%
  cycles after which TN removal efficiency reached stability: 27 cycles
Activated sludge [7]; 10 μg/L, 10° C., after stability (Example 1)
  TN average removal efficiency: 64.97%
Activated sludge [7]; 10 μg/L, 10° C.
  MLSS of the reactor lower than that of the control group (without C4-HSL): 2%
Activated sludge [7]; 100 μg/L
  MLSS lower than that of the control group (without C4-HSL added): 38%
Activated sludge [7]; 100 μg/L, 4° C. (Example 4)
  average NH4+—N removal efficiency: 98.8%
Activated sludge [7]; 100 μg/L, 10° C.
  TN average effluent concentration: 12.86 mg/L
  cycles after which TN removal efficiency reached stability: 27 cycles
  MLSS of the reactor lower than that of the control group (without C4-HSL): 12%
Activated sludge [7]; 100 μg/L, 10° C. (Example 2)
  COD removal efficiency: 90%
  average NH4+—N removal efficiency: 99.85%
Activated sludge [7]; 100 μg/L, 10° C., after stability
  TN average removal efficiency: 60.46%
Activated sludge [7]; low temperatures, Example 1 vs Comparative Example 1, FIG. 1 and 2
  TN removal efficiency and NH4+—N removal efficiency compared with not adding C4-HSL: significantly improved
Activated sludge [7]; room temperature
  effect of adding C4-HSL on the nitrogen removal effect: little effect
Activated sludge [7]; [12]
  ammonia-nitrogen removal efficiency: not less than 99%
  effluent TN: not more than 15 mg/L
  effluent ammonia-nitrogen concentration: around 0.1 mg/L
  removal efficiency of COD: not less than 90%
